Source: patent publication US9192601B2, “Methods for enhancing muscle performance and tone” (Salk Institute for Biological Studies, priority 2006, dated 2015)

Legend:
mitochondrial DNA = assay: Mitochondrial DNA expression by QPCR; assay type: in vivo, mouse
Procedure: In addition to its effects on the fiber type, exercise training increased skeletal muscle mitochondrial biogenesis, which can be measured as a function of mitochondrial DNA expression levels using quantitative real time PCR (QPCR). Mitochondrial DNA expression levels were determined in muscles of V, GW, Tr, and GW+Tr subjects using quantitative real time PCR. […] Such an increase is known to contribute to enhanced endurance capacity (e.g., Holloszy, Med. Sci. Sports 7:155-64, 1975). Slow-twitch and fast-twitch muscle fiber types also can be distinguished by myosin isoform expression (Gauthier and Lowey, J. Cell Biol. 81:10-25, 1979; Fitzsimons and Hoh, Biochem. J. 193:229-33, 1981). […] Therefore, at least at the transcriptional level, the PPARδ agonist was capable of inducing some proteins characteristic of a slow-twitch muscle fiber phenotype.

quadriceps muscle = assay: Microarray analysis of quadriceps (Affymetrix mouse genome 430A 2.0); assay type: in vivo
[1] = Exercise effect in healthy adult human subjects (Example 9); assay type: in vivo; conditions: 1 to 20 mg per day oral with aerobic exercise
Procedure: Healthy adult human subjects perform aerobic exercise (e.g., running) for at least 30 minutes (e.g., 30-90 minutes) for at least 3-4 days per week (e.g., 3-7 days per week) for at least 2 weeks (e.g., at least 4-12 weeks). The exercise is performed at 40%-50% maximal heart rate, […] maximal heart rate, 60%-70% maximal heart rate, or 75%-80% maximal heart rate, where maximum heart rate for a human subject is calculated as: 220 bps−(age of the subject). […] Subjects can continue to perform aerobic exercise while receiving GW1516. […] The exercise effect achieved in the treated subjects (e.g., running endurance) can be compared to such an effect in untreated subjects. Exercise effect can be measured using methods known in the art, such as measuring aerobic or running endurance (for example measuring distance run until exhaustion or amount of time to run a particular distance). In some instances, the exercise effect of interest is increased in treated subjects by at least 5%, such as at least 10% as compared to untreated subjects.

[2] = GW + Tr: GW1516 + exercise training, quadriceps
[3] = GW + Tr: GW1516 + exercise training, quadriceps, listed as GW
[4] = GW: GW1516 alone, sedentary, quadriceps, — = not regulated

Cyp2e1 expression (quadriceps muscle; [2]): 2.941
SMILES: Cc1cc(SCc2sc(-c3ccc(C(F)(F)F)cc3)nc2C)ccc1OCC(=O)O [GW1516, (2-methyl-4(((4-methyl-2-(4-trifluoromethylphenyl)-1,3-thiazol-5-yl)methyl)sulfanyl)phenoxy)acetic acid]
increase in mitochondrial DNA expression (mitochondrial DNA; combination of exercise and GW1516): approximately 50% | mitochondrial DNA expression (mitochondrial DNA; drug alone): not changed | number of genes regulated in quadriceps (quadriceps muscle; GW1516 treatment alone): 96 genes | 1810073N04Rik expression (quadriceps muscle; [2]): 2.326 | 2310076L09Rik expression (quadriceps muscle; [2]): 1.868 | Abcb1a expression (quadriceps muscle; [2]): 10.322 | Acaa2 expression (quadriceps muscle; [2]): 1.926 | Acadl expression (quadriceps muscle; [2]): 2.549 | Acat2 expression (quadriceps muscle; [2]): 1.625 | Acly expression (quadriceps muscle; [2]): 2.606 | Acp5 expression (quadriceps muscle; [2]): 3.91 | Adfp (adipose differentiation related protein) expression (quadriceps muscle; [2]): 2.009 | Adipoq expression (quadriceps muscle; [2]): 3.082 | Adrb3 expression (quadriceps muscle; [2]): 3.83 | Aldh1a7 expression (quadriceps muscle; [2]): 3.862 | Angptl4 expression (quadriceps muscle; [2]): 5.495 | Aplp2 expression (quadriceps muscle; [2]): 1.937 | Arcn1 expression (quadriceps muscle; [2]): 1.617 | Asb15 expression (quadriceps muscle; [2]): 1.78 | Atf3 expression (quadriceps muscle; [2]): 1.802 | BC054059 expression (quadriceps muscle; [2]): 5.08 | Btg2 expression (quadriceps muscle; [2]): 1.601 | C530043G21Rik expression (quadriceps muscle; [2]): 1.5 | Car3 expression (quadriceps muscle; [2]): 2.339 | Cat expression (quadriceps muscle; [2]): 1.82 | Cd36 expression (quadriceps muscle; [2]): 1.584 | Cdo1 expression (quadriceps muscle; [2]): 3.266 | Cebpa expression (quadriceps muscle; [2]): 2.168 | Cfd expression (quadriceps muscle; [2]): 2.828 | Cidea expression (quadriceps muscle; [2]): 49.625 | Cidec expression (quadriceps muscle; [2]): 4.771 | Clcn5 expression (quadriceps muscle; [2]): 2.333 | Cldn5 expression (quadriceps muscle; [2]): 1.545 | Cpt1a expression (quadriceps muscle; [2]): 2.753 | Crybb1 expression (quadriceps muscle; [2]): 2.457 | D4Wsu53e expression (quadriceps muscle; [2]): 1.586 | Dbi expression (quadriceps muscle; [2]): 1.936 | Dgat2 expression (quadriceps muscle; [2]): 2.784 | Dnajb1 expression (quadriceps muscle; [2]): 3.59 | Dusp7 expression (quadriceps muscle; [2]): 1.661 | Dync1i2 expression (quadriceps muscle; [2]): 1.705 | Egr1 expression (quadriceps muscle; [2]): 2.577 | Fabp3 expression (quadriceps muscle; [2]): 1.833 | Fabp4 expression (quadriceps muscle; [2]): 2.189 | Fasn expression (quadriceps muscle; [2]): 6.323 | Fbp2 expression (quadriceps muscle; [2]): 2.808 | Fos expression (quadriceps muscle; [2]): 3.9 | Gpam expression (quadriceps muscle; [2]): 2.207 | Gpiap1 expression (quadriceps muscle; [2]): 1.83 | Hba-a1 expression (quadriceps muscle; [2]): 1.632 | Hbb-b2|Hbb-y expression (quadriceps muscle; [2]): 1.626 | Hip1r expression (quadriceps muscle; [2]): 1.75 | Hipk3 expression (quadriceps muscle; [2]): 1.694 | Hp expression (quadriceps muscle; [2]): 1.679 | Hsd17b12 expression (quadriceps muscle; [2]): 2.376 | Hsp90aa1 expression (quadriceps muscle; [2]): 1.513 | Hspa1b expression (quadriceps muscle; [2]): 8.845 | Hspa9a expression (quadriceps muscle; [2]): 1.61 | Ifi27 expression (quadriceps muscle; [2]): 1.714 | Igf2 expression (quadriceps muscle; [2]): 1.635 | Igfbp5 expression (quadriceps muscle; [2]): 1.772 | Il6st expression (quadriceps muscle; [2]): 1.972 | Junb expression (quadriceps muscle; [2]): 1.792 | Klf3 expression (quadriceps muscle; [2]): 1.901 | Ldhb expression (quadriceps muscle; [2]): 2.541 | Lig3 expression (quadriceps muscle; [2]): 2.693 | Lipe expression (quadriceps muscle; [2]): 3.032 | Lmx1a expression (quadriceps muscle; [2]): 4.106 | Lpl expression (quadriceps muscle; [2]): 1.659 | Mb expression (quadriceps muscle; [2]): 1.578 | Mgl1 / Mgll (monoglyceride lipase) expression (quadriceps muscle; [2]): 1.907 | Mgst1 expression (quadriceps muscle; [2]): 1.916 | Mlycd expression (quadriceps muscle; [2]): 1.781 | Mpv17l expression (quadriceps muscle; [2]): 1.988 | Mybph expression (quadriceps muscle; [2]): 1.578 | Myh2 expression (quadriceps muscle; [2]): 2.194 | Neurl expression (quadriceps muscle; [2]): 1.941 | Nle1 expression (quadriceps muscle; [2]): 1.831 | Nr1d2 expression (quadriceps muscle; [2]): 1.794 | Nr4a2 expression (quadriceps muscle; [2]): 1.776 | Pck1 expression (quadriceps muscle; [2]): 3.518 | Pdk4 expression (quadriceps muscle; [2]): 2.27 | Ppp2r1b expression (quadriceps muscle; [2]): 2.509 | Ptplb expression (quadriceps muscle; [2]): 2.38 | Rab5b expression (quadriceps muscle; [2]): 1.603 | Rbbp4 expression (quadriceps muscle; [2]): 2.865 | Rbp4 expression (quadriceps muscle; [2]): 2.065 | Retn expression (quadriceps muscle; [2]): 4.114 | Rpol-4 expression (quadriceps muscle; [2]): 2.498 | Rragd expression (quadriceps muscle; [2]): 2.101 | Rtbdn expression (quadriceps muscle; [2]): 2.32 | Scd1 expression (quadriceps muscle; [2]): 6.494 | Scd2 expression (quadriceps muscle; [2]): 1.849 | Serpina1a expression (quadriceps muscle; [2]): 0.396 | Serpinf1 expression (quadriceps muscle; [2]): 7.765 | Slc1a5 expression (quadriceps muscle; [2]): 1.939 | Slc25a20 expression (quadriceps muscle; [2]): 1.865 | Slc27a1 expression (quadriceps muscle; [2]): 3.58 | Sln expression (quadriceps muscle; [2]): 0.363 | Sod3 expression (quadriceps muscle; [2]): 1.606 | Surf4 expression (quadriceps muscle; [2]): 2.091 | Svs5 expression (quadriceps muscle; [2]): 0.095 | Tgfbr2 expression (quadriceps muscle; [2]): 2.13 | Thrsp expression (quadriceps muscle; [2]): 2.685 | Tkt expression (quadriceps muscle; [2]): 2.256 | Tpcn1 expression (quadriceps muscle; [2]): 2.842 | Trf expression (quadriceps muscle; [2]): 1.907 | Trim35 expression (quadriceps muscle; [2]): 1.856 | Ucp3 expression (quadriceps muscle; [2]): 2.943 | Wnt7b expression (quadriceps muscle; [2]): 4.449 | Ywhag expression (quadriceps muscle; [2]): 1.87 | Zfp261 expression (quadriceps muscle; [2]): 1.847 | erythroid differentiation regulator 1 expression (quadriceps muscle; [2]): 0.619 | Acly expression (quadriceps muscle; [3]): 2.458 | Cat expression (quadriceps muscle; [3]): 1.728 | Hsp90aa1 expression (quadriceps muscle; [3]): 1.455 | Slc25a20 expression (quadriceps muscle; [3]): 1.704 | Ankrd1 expression (quadriceps muscle; [4]): 4.235 | Cryab expression (quadriceps muscle; [4]): 1.561 | Crygf expression (quadriceps muscle; [4]): 1.801 | Dnaja4 expression (quadriceps muscle; [4]): 1.756 | Hspb1 expression (quadriceps muscle; [4]): 1.815 | Hspb7 expression (quadriceps muscle; [4]): 3.414 | Mt1 expression (quadriceps muscle; [4]): 2.364 | Mt2 expression (quadriceps muscle; [4]): 2.151 | Smad3 expression (quadriceps muscle; [4]): 1.841 | Tnfrsf12a expression (quadriceps muscle; [4]): 1.759 | number of genes regulated in quadriceps (quadriceps muscle; combination of GW1516 and exercise): 130 genes | increase of exercise effect vs untreated subjects [1]: at least 5%
